Where two headings read alike, the source gives them in different places.
Tests used:
[1] = water solubility of amlexanox; assay type: physicochemical
Source text: (§1) The molecule contains a free carboxylate group, and the water solubility of amlexanox can be increased by raising the pH of the dissolution solution. However, caution is necessary using this approach as degradation of amlexanox may take place at high pH. […] Thus the formulation of a viscous, mucoadhesive solution of amlexanox which is also stable represented a major challenge.

[2] = stability of amlexanox in aqueous solution; assay type: physicochemical; conditions: under certain conditions, solution pH greater than about 8.0
Source text: as §1

[3] = test system: passive cutaneous anaphylaxis mediated by IgE; conditions: rat, cited from earlier work
Arthus reaction = conditions: cited from earlier work
tuberculin reaction = conditions: intravenous, cited from earlier work
[4] = test system: 2,4-dinitro-1 -fluorobenzene-induced contact sensitivity; conditions: intravenous, cited from earlier work
[5] = test system: IgE-mediated bronchoconstriction; conditions: rats, cited from earlier work
[6] = test system: IgE-mediated constriction; conditions: actively sensitized guinea pigs, cited from earlier work
[7] = test system: IgG1-mediated bronchoconstriction; conditions: actively sensitized guinea pigs, cited from earlier work
bronchoconstriction = conditions: guinea pigs passively sensitized with rabbit IgG, intravenously; cited from earlier work
[8] = test system: leukotriene D4-induced bronchoconstriction; conditions: guinea pigs, intravenous doses of 5 and 20 mg/kg; cited from earlier work
[9] = test system: platelet activating factor-induced bronchoconstriction; conditions: guinea pigs, intravenous doses of 5 and 20 mg/kg; cited from earlier work
[10] = test system: histamine-induced bronchoconstriction; conditions: cited from earlier work
[11] = test system: acetylcholine-induced bronchoconstriction; conditions: text b108; cited from earlier work
mast cells = conditions: cited from earlier work
[12] = test system: leukotriene D4 (LTD4) generation; conditions: mechanism of action; cited from earlier work
airway smooth muscle = conditions: mechanism of action; cited from earlier work
allergic reactions = conditions: variety of in vivo models; cited from earlier work
leukotrienes = conditions: in vitro; cited from earlier work
cyclo-oxygenase products = conditions: whole tissue studies; cited from earlier work
[13] = test system: cyclic nucleotide phosphodiesterase; conditions: cited from earlier work
inflammation = conditions: in vivo; cited from earlier work

## CC(C)c1ccc2oc3nc(N)c(C(=O)O)cc3c(=O)c2c1 [Amlexanox, 2-amino-7-(1 methylethyl)-5-oxo-5H[1]benzopyrano[2,3-b]pyridine-3-carboxylic acid]
[1]
  water solubility: poorly water soluble
[2]
  degradation in aqueous solution: degrade slowly
[3]; intravenous
  ED50, inhibition of passive cutaneous anaphylaxis: 0.032 mg/kg
[3]; oral
  ED50, inhibition of passive cutaneous anaphylaxis: 0.73 mg/kg
Arthus reaction; intravenous doses of 5 and 20 mg/kg given immediately after antigen challenge
  inhibition of the Arthus reaction: moderate activity
Arthus reaction; oral doses of 50 and 10 mg/kg given 1 or 3 hours after antigen challenge
  inhibition of the Arthus reaction: moderate activity
Tuberculin reaction; 5 mg/kg
  inhibition of the tuberculin reaction: not
Tuberculin reaction; 20 mg/kg
  inhibition of the tuberculin reaction: significant inhibition
[4]; 5 mg/kg
  inhibition of contact sensitivity: not
[4]; 20 mg/kg
  inhibition of contact sensitivity: significant inhibition
[5]; intravenous dose of 1 mg/kg
  suppression of IgE-mediated bronchoconstriction: significantly suppressed
[5]; oral dose of 10 mg/kg
  suppression of IgE-mediated bronchoconstriction: significantly suppressed
[6]; 20 mg/kg, another study
  inhibition of IgE-mediated constriction: significant inhibition
[6]; one study
  ED50, inhibition of IgE-mediated constriction: 14.5 mg/kg
[7]; intravenous
  ED50, IgG1-mediated bronchoconstriction: 8.2 mg/kg
[7]; oral
  ED50, IgG1-mediated bronchoconstriction: 160 mg/kg
bronchoconstriction
  ED50, inhibition of bronchoconstriction: 9 mg/kg
[8]
  suppression of bronchoconstriction induced by leukotriene D4: dose-related suppression
[9]
  suppression of bronchoconstriction induced by platelet activating factor: dose-related suppression
[10]; Table 1
  bronchoconstriction induced by histamine: Has no effect on bronchoconstriction induced by histamine or
[10]; text b108
  effect on histamine-induced bronchoconstriction: slightly suppressed
[11]
  effect on acetylcholine-induced bronchoconstriction: not active
Mast cells; antigen-antibody induced release, ionophore induced release
  release of inflammatory mediators from mast cells: Potent inhibitor of the release of inflammatory mediators from mast cells
Mast cells; mechanism of action, in vivo and in vitro studies
  immunologically-stimulated release of histamine from mast cells: Inhibition
[12]
  leukotriene D4 (LTD4) generation: Inhibition
Airway smooth muscle
  contractile response of airway smooth muscle to LTD4: Antagonism
Allergic reactions
  anti-allergic activity: Potent ant-allergic agent demonstrated in a variety of in vivo models
leukotrienes
  formation of leukotrienes: Inhibits formation of leukotrienes, in vitro
cyclo-oxygenase products
  generation of cyclo-oxygenase products: Does not inhibit generation of cyclo-oxygenase products in whole
[13]
  inhibition of cyclic nucleotide phosphodiesterase: Potent inhibitor of cyclic nucleotide phosphodiesterase
inflammation
  anti-inflammatory activity: Weak anti-inflammatory activity in vivo

Source: US20020103219A1, “Stable viscous liquid formulations of amlexanox for the prevention and treatment of mucosal diseases and disorders” (priority 2000, published 2002)
